System: 885724-159-R-J1-PDC KRAS PDC multicell spheroid viability
Assay: Anticancer human tumor 885724-159-R-J1-PDC patient-derived pancreatic adenocarcinoma cell line growth inhibition [KRAS2]
Settings: for IC50: curve of first compound; for viability, T/C: stronger effect = lower value
How it was run: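 KRAS-mutant tumor cells were grown as spheroids with HUVEC endothelial cells and human MSCs as stroma. Targeted agents were tested alone and with KRAS pathway inhibitors. Doses started at or near clinical Cmax, or 10 microM, descending half-log.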

[1] = second compound 0.1 µM, first compound 0.0316 µM
[2] = second compound 0.1 µM, first compound 0.1 µM
[3] = second compound 0.1 µM, first compound 0.316 µM
[4] = second compound 0.1 µM, first compound 1 µM
[5] = second compound 0.1 µM, first compound 3.16 µM
[6] = second compound 0.1 µM, first compound 10 µM
[7] = second compound 0.316 µM, first compound 0.0316 µM
[8] = second compound 0.316 µM, first compound 0.1 µM
[9] = second compound 0.316 µM, first compound 0.316 µM
[10] = second compound 0.316 µM, first compound 1 µM
[11] = second compound 0.316 µM, first compound 3.16 µM
[12] = second compound 0.316 µM, first compound 10 µM
[13] = second compound 1 µM, first compound 0.0316 µM
[14] = second compound 1 µM, first compound 0.1 µM
[15] = second compound 1 µM, first compound 0.316 µM
[16] = second compound 1 µM, first compound 1 µM
[17] = second compound 1 µM, first compound 3.16 µM
[18] = second compound 1 µM, first compound 10 µM
[19] = second compound 3.16 µM, first compound 0.0316 µM
[20] = second compound 3.16 µM, first compound 0.1 µM
[21] = second compound 3.16 µM, first compound 0.316 µM
[22] = second compound 3.16 µM, first compound 1 µM
[23] = second compound 3.16 µM, first compound 3.16 µM
[24] = second compound 3.16 µM, first compound 10 µM
[25] = second compound 10 µM, first compound 0.0316 µM
[26] = second compound 10 µM, first compound 0.1 µM
[27] = second compound 10 µM, first compound 0.316 µM
[28] = second compound 10 µM, first compound 1 µM
[29] = second compound 10 µM, first compound 3.16 µM
[30] = second compound 10 µM, first compound 10 µM
[31] = second compound 0.1 µM, first compound 0.00316 µM
[32] = second compound 0.1 µM, first compound 0.01 µM
[33] = second compound 0.316 µM, first compound 0.00316 µM
[34] = second compound 0.316 µM, first compound 0.01 µM
[35] = second compound 1 µM, first compound 0.00316 µM
[36] = second compound 1 µM, first compound 0.01 µM
[37] = second compound 3.16 µM, first compound 0.00316 µM
[38] = second compound 3.16 µM, first compound 0.01 µM
[39] = second compound 10 µM, first compound 0.00316 µM
[40] = second compound 10 µM, first compound 0.01 µM
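Further: spheroids exposed to agents for 7 days before readout.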

## CC(C)NCC(C(=O)N1CCN(c2ncnc3c2C(C)CC3O)CC1)c1ccc(Cl)cc1 (stereo not given) + CNCc1ccccc1-c1csc(C(C)Nc2nc(C)nc3cc(OC)c(OC)cc23)c1
Second compound 0.1 µM
  IC50: > 10000 nM
Second compound 0.316 µM
  IC50: > 10000 nM
Second compound 1 µM
  IC50: 4190 nM
Second compound 3.16 µM
  IC50: < 31.6 nM
Second compound 10 µM
  IC50: < 31.6 nM
[1]
  viability, T/C: 87.4%
[2]
  viability, T/C: 82.9%
[3]
  viability, T/C: 76%
[4]
  viability, T/C: 70.8%
[5]
  viability, T/C: 76.8%
[6]
  viability, T/C: 57.1%
[7]
  viability, T/C: 87.4%
[8]
  viability, T/C: 77.3%
[9]
  viability, T/C: 67.7%
[10]
  viability, T/C: 72.7%
[11]
  viability, T/C: 78.2%
[12]
  viability, T/C: 53.1%
[13]
  viability, T/C: 94%
[14]
  viability, T/C: 76.9%
[15]
  viability, T/C: 64.9%
[16]
  viability, T/C: 66.3%
[17]
  viability, T/C: 68.8%
[18]
  viability, T/C: 26.3%
[19]
  viability, T/C: 1.32%
[20]
  viability, T/C: 0.9%
[21]
  viability, T/C: 1.56%
[22]
  viability, T/C: 0.7%
[23]
  viability, T/C: 0.43%
[24]
  viability, T/C: 0.59%
[25]
  viability, T/C: 0.17%
[26]
  viability, T/C: 0.16%
[27]
  viability, T/C: 0.17%
[28]
  viability, T/C: 0.31%
[29]
  viability, T/C: 0.16%
[30]
  viability, T/C: 0.23%

## CCN1CCN(Cc2ccc(Nc3ncc(F)c(-c4cc(F)c5nc(C)n(C(C)C)c5c4)n3)nc2)CC1 + CNCc1ccccc1-c1csc(C(C)Nc2nc(C)nc3cc(OC)c(OC)cc23)c1
Second compound 0.1 µM
  IC50: > 1000 nM
Second compound 0.316 µM
  IC50: > 1000 nM
Second compound 1 µM
  IC50: > 1000 nM
Second compound 3.16 µM
  IC50: < 3.16 nM
Second compound 10 µM
  IC50: < 3.16 nM
[31]
  viability, T/C: 110%
[32]
  viability, T/C: 100%
[1]
  viability, T/C: 92.2%
[2]
  viability, T/C: 86.8%
[3]
  viability, T/C: 87.2%
[4]
  viability, T/C: 96.9%
[33]
  viability, T/C: 106%
[34]
  viability, T/C: 94.8%
[7]
  viability, T/C: 78.2%
[8]
  viability, T/C: 83.4%
[9]
  viability, T/C: 94%
[10]
  viability, T/C: 90.9%
[35]
  viability, T/C: 95%
[36]
  viability, T/C: 96.3%
[13]
  viability, T/C: 76.6%
[14]
  viability, T/C: 78.3%
[15]
  viability, T/C: 74.8%
[16]
  viability, T/C: 71.2%
[37]
  viability, T/C: 0.67%
[38]
  viability, T/C: 1.81%
[19]
  viability, T/C: 0.79%
[20]
  viability, T/C: 4.1%
[21]
  viability, T/C: 0.68%
[22]
  viability, T/C: 0.56%
[39]
  viability, T/C: 0.19%
[40]
  viability, T/C: 0.32%
[25]
  viability, T/C: 0.2%
[26]
  viability, T/C: 0.19%
[27]
  viability, T/C: 0.19%
[28]
  viability, T/C: 0.28%

## CCNC(=O)CC1N=C(c2ccc(Cl)cc2)c2cc(OC)ccc2-n2c(C)nnc21 (stereo not given) + CNCc1ccccc1-c1csc(C(C)Nc2nc(C)nc3cc(OC)c(OC)cc23)c1
Second compound 0.1 µM
  IC50: > 10000 nM
Second compound 0.316 µM
  IC50: > 10000 nM
Second compound 1 µM
  IC50: > 10000 nM
Second compound 3.16 µM
  IC50: < 31.6 nM
Second compound 10 µM
  IC50: < 31.6 nM
[1]
  viability, T/C: 122%
[2]
  viability, T/C: 114%
[3]
  viability, T/C: 77.3%
[4]
  viability, T/C: 63.2%
[5]
  viability, T/C: 53.7%
[6]
  viability, T/C: 52.5%
[7]
  viability, T/C: 118%
[8]
  viability, T/C: 113%
[9]
  viability, T/C: 81.9%
[10]
  viability, T/C: 61.8%
[11]
  viability, T/C: 55.1%
[12]
  viability, T/C: 48.3%
[13]
  viability, T/C: 110%
[14]
  viability, T/C: 116%
[15]
  viability, T/C: 79.1%
[16]
  viability, T/C: 59.7%
[17]
  viability, T/C: 52.6%
[18]
  viability, T/C: 49.7%
[19]
  viability, T/C: 1.45%
[20]
  viability, T/C: 11.5%
[21]
  viability, T/C: 1.37%
[22]
  viability, T/C: 1.56%
[23]
  viability, T/C: 0.16%
[24]
  viability, T/C: 0.43%
[25]
  viability, T/C: 0.33%
[26]
  viability, T/C: 0.2%
[27]
  viability, T/C: 0.25%
[28]
  viability, T/C: 0.16%
[29]
  viability, T/C: 0.18%
[30]
  viability, T/C: 0.26%

## Cn1ncnc1[C@H]1c2n[nH]c(=O)c3cc(F)cc(c23)N[C@@H]1c1ccc(F)cc1 + CNCc1ccccc1-c1csc(C(C)Nc2nc(C)nc3cc(OC)c(OC)cc23)c1
Second compound 0.1 µM
  IC50: > 100 nM
Second compound 0.316 µM
  IC50: > 100 nM
Second compound 1 µM
  IC50: > 100 nM
Second compound 3.16 µM
  IC50: < 0.316 nM
Second compound 10 µM
  IC50: < 0.316 nM
Second compound 0.1 µM, first compound 0.000316 µM
  viability, T/C: 100%
Second compound 0.1 µM, first compound 0.001 µM
  viability, T/C: 104%
[31]
  viability, T/C: 88.8%
[32]
  viability, T/C: 99.5%
[1]
  viability, T/C: 80.2%
[2]
  viability, T/C: 80%
Second compound 0.316 µM, first compound 0.000316 µM
  viability, T/C: 92.6%
Second compound 0.316 µM, first compound 0.001 µM
  viability, T/C: 89.2%
[33]
  viability, T/C: 84.1%
[34]
  viability, T/C: 98%
[7]
  viability, T/C: 77.4%
[8]
  viability, T/C: 71.3%
Second compound 1 µM, first compound 0.000316 µM
  viability, T/C: 82.5%
Second compound 1 µM, first compound 0.001 µM
  viability, T/C: 83.4%
[35]
  viability, T/C: 91.2%
[36]
  viability, T/C: 78.5%
[13]
  viability, T/C: 74.2%
[14]
  viability, T/C: 76.9%
Second compound 3.16 µM, first compound 0.000316 µM
  viability, T/C: 1.47%
Second compound 3.16 µM, first compound 0.001 µM
  viability, T/C: 1.04%
[37]
  viability, T/C: 0.71%
[38]
  viability, T/C: 0.73%
[19]
  viability, T/C: 0.71%
[20]
  viability, T/C: 0.75%
Second compound 10 µM, first compound 0.000316 µM
  viability, T/C: 0.51%
Second compound 10 µM, first compound 0.001 µM
  viability, T/C: 0.45%
[39]
  viability, T/C: 0.13%
[40]
  viability, T/C: 0.3%
[25]
  viability, T/C: 0.22%
[26]
  viability, T/C: 0.48%

Source: PubChem BioAssay AID1963861 (Molecular Pharmacology Branch, DTP, NCI, 2024)
